The source of these data is PMC2782674 (Biochemistry, 2009).

For orientation: Kd means a measure of binding affinity in units of concentration. Low values mean tighter binding, high ones weaker binding. Broadly, the Km is the concentration of substrate that gives half-maximal velocity.

The target in series [1] is T1, FpuA (Bc_4528) (Bacillus cereus, UniProt Q817L3).
T1 sequence (Q817L3 19-324): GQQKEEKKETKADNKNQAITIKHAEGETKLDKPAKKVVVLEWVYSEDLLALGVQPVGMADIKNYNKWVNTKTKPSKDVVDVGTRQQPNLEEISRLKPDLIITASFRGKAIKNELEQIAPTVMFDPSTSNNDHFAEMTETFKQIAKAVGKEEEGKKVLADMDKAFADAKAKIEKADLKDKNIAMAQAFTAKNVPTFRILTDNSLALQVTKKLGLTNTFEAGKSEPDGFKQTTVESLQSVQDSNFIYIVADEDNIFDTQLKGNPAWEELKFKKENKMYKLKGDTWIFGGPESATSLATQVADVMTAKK
It counts as binding, B. cereus ATCC 14579.

Series [2] deals with T2, FatB (Bc_5106) (Bacillus cereus, UniProt Q815N5).
T2 sequence (Q815N5 24-338): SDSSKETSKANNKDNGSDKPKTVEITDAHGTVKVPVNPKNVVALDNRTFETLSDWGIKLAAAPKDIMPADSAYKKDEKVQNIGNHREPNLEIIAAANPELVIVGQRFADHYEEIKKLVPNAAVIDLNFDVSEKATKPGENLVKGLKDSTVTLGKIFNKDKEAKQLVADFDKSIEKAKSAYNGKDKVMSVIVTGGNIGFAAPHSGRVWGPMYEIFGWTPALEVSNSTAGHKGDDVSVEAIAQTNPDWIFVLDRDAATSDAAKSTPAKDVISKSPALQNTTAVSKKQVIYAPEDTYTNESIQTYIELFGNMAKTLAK
The settings on record: pH 6.8.

Series [3] addresses T1, FpuA (Bc_4528). The settings on record: pH 6.8.
The target in series [4] is T2, FatB (Bc_5106). The format is binding, B. cereus ATCC 14579.
In another series the target is T3, YxeB (Bc_0383) (Bacillus cereus, UniProt Q81IK3).
T3 sequence (Q81IK3 20-306): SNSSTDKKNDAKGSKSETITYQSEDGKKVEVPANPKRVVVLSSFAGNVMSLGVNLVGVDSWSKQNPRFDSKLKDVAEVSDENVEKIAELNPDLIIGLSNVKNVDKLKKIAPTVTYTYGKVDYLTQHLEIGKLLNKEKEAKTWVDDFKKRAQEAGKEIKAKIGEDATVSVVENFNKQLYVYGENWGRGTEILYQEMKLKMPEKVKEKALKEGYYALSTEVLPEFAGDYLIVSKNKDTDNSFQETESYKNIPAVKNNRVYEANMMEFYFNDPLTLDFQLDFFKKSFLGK
The format is binding, B. cereus ATCC 14579. The settings on record: for Kd: pH 7.

Another series addresses T4, FeuA (Bc_3738) (Bacillus cereus, UniProt Q81A53).
T4 sequence (Q81A53 22-321): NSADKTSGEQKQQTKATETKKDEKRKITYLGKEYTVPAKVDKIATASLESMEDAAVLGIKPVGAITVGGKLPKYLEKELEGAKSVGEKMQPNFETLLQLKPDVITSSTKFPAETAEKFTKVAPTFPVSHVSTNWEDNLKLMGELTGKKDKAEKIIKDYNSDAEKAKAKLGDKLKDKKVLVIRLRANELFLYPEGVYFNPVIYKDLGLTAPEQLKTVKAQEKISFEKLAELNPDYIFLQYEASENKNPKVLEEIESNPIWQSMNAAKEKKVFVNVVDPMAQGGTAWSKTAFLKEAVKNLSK
In words: biochemical. It counts as binding, B. cereus ATCC 14579.

The test system of series [5] is B. cereus ATCC 14579. The format is cell-based, Bacillus cereus.
The subject of series [6] is B. cereus ATCC 14579. It counts as cell-based, Bacillus cereus. This is another data set of the same source.

Entries after “also recorded” stand apart in the source; their conditions may differ. Like-named read-outs stand apart in the source and are kept apart here. Square brackets hold non-standard residues; d marks the D form. Peptide text beside a SMILES is read from it. Orn(N5-OH,N5-Ac) = CC(=O)N(O)CCC[C@H](N)C(=O)O

Consider `CC(=O)N(O)CCCNC(=O)CC(O)(CC(=O)NCCCN(O)C(C)=O)C(=O)O` [Sch, schizokinen], for which the “ligand recognition by FpuA” value at FpuA (Bc_4528) [1] is “binding incompatibility”.

Take ferric citrate: on FpuA (Bc_4528) [1], the “ligand recognition by FpuA” value is on record as “no recognition”. On FatB (Bc_5106) [2], the “noncovalent complex with FatB by ESI-MS (Molecular weight Measured)” value is reported as “no protein-ligand complexes were detected”. For the same compound, the “noncovalent complex with FpuA by ESI-MS (Molecular weight Measured)” value (“noncovalent complex with FpuA by ESI-MS” below) at FpuA (Bc_4528) [3] is “no protein-ligand complexes were detected”. Also, on FatB (Bc_5106) [4], the “ligand recognition by FatB” value was “no recognition”.

With `CC(=O)N([O-])CCC[C@@H]1NC(=O)CNC(=O)CNC(=O)CNC(=O)[C@H](CCCN([O-])C(C)=O)NC(=O)[C@H](CCCN([O-])C(C)=O)NC1=O.[Fe+3]` [Fch, ferrichrome] (cyclo(GGG[Orn(N5-OH,N5-Ac)][Orn(N5-OH,N5-Ac)][Orn(N5-OH,N5-Ac)])), the “change of YxeB fluorescence on binding” value at YxeB (Bc_0383) is “increase of SBP fluorescence”. At FpuA (Bc_4528) [1], the “binding of the aposiderophore to FpuA” value is “did not bind” and the “unspecific protein emission quenching of FpuA” value was 10-20%. In addition, the “noncovalent complex with FpuA by ESI-MS” value on FpuA (Bc_4528) [3] is listed as “no protein-ligand complexes were detected”.

Compound FeEnt registered a Kd at FeuA (Bc_3738) (pH 7) of 0.012 µM.

Turning to `CC(=O)N(O)CCC[C@@H]1NC(=O)CNC(=O)CNC(=O)CNC(=O)[C@H](CCCN(O)C(C)=O)NC(=O)[C@H](CCCN(O)C(C)=O)NC1=O.[Fe+3]` [FeFch] (cyclo(GGG[Orn(N5-OH,N5-Ac)][Orn(N5-OH,N5-Ac)][Orn(N5-OH,N5-Ac)])), binding on YxeB (Bc_0383) was characterised by a dissociation constant (Kd) of 0.03 µM. The “effect on uptake of ^55FeDFO” value with B. cereus ATCC 14579 [5] is recorded as “inhibited”.

On YxeB (Bc_0383), `CC(=O)N(O)CCCCCNC(=O)CCC(=O)N(O)CCCCCNC(=O)CCC(=O)N(O)CCCCCN.[Fe+3]` [FeDFO] yielded a Kd of 0.018 µM. The “effect on transport of ^55FeFch” value in the series on B. cereus ATCC 14579 [5] is “inhibited”.

Turning to `O=C(CC(O)(CC(=O)NCCCCNCCCNC(=O)c1ccc(O)c(O)c1)C(=O)O)NCCCCNCCCNC(=O)c1ccc(O)c(O)c1` [PB, petrobactin], binding on FpuA (Bc_4528) [1] (pH 7) was put at a Kd of 0.023 µM. In addition, the “noncovalent complex with FatB by ESI-MS (Molecular weight Measured)” value on FatB (Bc_5106) [2] was “not observed”. Further, the “noncovalent complex with FpuA by ESI-MS” value on FpuA (Bc_4528) [3] is reported as “not observed”. In the series on B. cereus ATCC 14579 [5], the “effect on incorporation of radioactive ferric Ent” value was “only slightly affected”, the “effect on uptake of radioactive ferric 3,4-DHB” value is “inhibited”, the “effect on uptake of radioactive ferric PB” value is given as “inhibited” and the “effect on uptake of radioactive ferric PB^ν” value is on record as “inhibited”.

Regarding `CC(=O)N(O)CCCCCNC(=O)CCC(=O)N(O)CCCCCNC(=O)CCC(=O)N(O)CCCCCN` [DFO, desferrioxamine B], on YxeB (Bc_0383), the “change of YxeB fluorescence on binding” value is listed as “increase of SBP fluorescence”.

On FeuA (Bc_3738), `O=C(N[C@H]1COC(=O)[C@@H](NC(=O)c2cccc(O)c2O)COC(=O)[C@@H](NC(=O)c2cccc(O)c2O)COC1=O)c1cccc(O)c1O` [Ent, enterobactin] yielded a Kd of 0.036 µM.

In the case of `O=C(O)c1ccc(O)c(O)c1` [3,4-DHB, 3,4-dihydroxybenzoic acid], the “ligand recognition by FpuA” value at FpuA (Bc_4528) [1] is listed as “not specifically quenched”. Also, the “noncovalent complex with FpuA by ESI-MS” value on FpuA (Bc_4528) [3] is listed as “not observed”. Further, in the series on B. cereus ATCC 14579 [5], the “effect on uptake of radioactive ferric PB” value is on record as “inhibited” and the “effect on uptake of radioactive ferric PB^ν” value is on record as “inhibited”. In the series with B. cereus ATCC 14579 [6], the Km turned out to be 0.4 ± 0.1 µM and the vmax stood at 2.3 ± 0.1 pmol Fe mL^-1 min^-1.

Take `C[C@H]1OC(=O)[C@@H](NC(=O)CNC(=O)c2cccc(O)c2O)[C@@H](C)OC(=O)[C@@H](NC(=O)CNC(=O)c2cccc(O)c2O)[C@@H](C)OC(=O)[C@H]1NC(=O)CNC(=O)c1cccc(O)c1O` [BB, bacillibactin]: the “ligand recognition by FatB” value at FatB (Bc_5106) [4] is listed as “binding incompatibility; also recorded: no affinity”. In addition, binding on FeuA (Bc_3738) (pH 7) was characterised by a dissociation constant (Kd) of 0.059 µM.
